Laboratory results taken from ChEMBL document CHEMBL5528009, “Benzothiozinone derivatives with anti-tubercular Activity-Further side chain investigation” (Eur J Med Chem, 2024).

Legend:
[1] = test system: Mycobacterium tuberculosis; experiment: Antitubercular activity against multidrug-resistant Mycobacterium tuberculosis clinical isolate 16,030; assay type: functional
[2] = test system: Mycobacterium tuberculosis; experiment: Antitubercular activity against multidrug-resistant Mycobacterium tuberculosis clinical isolate 16,121; assay type: functional

SMILES | MIC [1] [µg/mL] | MIC [2] [µg/mL]
CN(CC#CC1CCCCC1)c1nc(=O)c2cc(C(F)(F)F)cc([N+](=O)[O-])c2s1 | < 0.016 | < 0.016
CN(CC#Cc1ccccc1)c1nc(=O)c2cc(C(F)(F)F)cc([N+](=O)[O-])c2s1 | < 0.016 | < 0.016
CN(CC#Cc1cscn1)c1nc(=O)c2cc(C(F)(F)F)cc([N+](=O)[O-])c2s1 | < 0.016 | < 0.016
NNC(=O)c1ccncc1 [ISONIAZID] | > 10 | > 10
CO[C@H]1/C=C/O[C@@]2(C)Oc3c(C)c(O)c4c(O)c(c(/C=N/N5CCN(C)CC5)c(O)c4c3C2=O)NC(=O)/C(C)=C\C=C\[C@H](C)[C@H](O)[C@@H](C)[C@@H](O)[C@@H](C)[C@H](OC(C)=O)[C@@H]1C [RIFAMPIN] | > 10 | > 10
